Measured values from US10723741B1, “DNA polymerase IIIC inhibitors and use thereof” (Acurx Pharmaceuticals, LLC, priority 2018, dated 2020).
Converted amounts (≈) assume the structure as drawn. Where two headings read alike, the source gives them in different places.

What was measured:
Format in all cases: cell-based
[1] = test system: Enterococcus faecium ATCC 700221 (VRE); experiment: Broth microdilution MIC, E. faecium ATCC 700221 (VRE); details: Enterococcus faecium, broth microdilution, 37° C., 20 hours
Method in brief: (§1)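 Broth microdilution in strain-specific test medium with ~5.0×10^5 cfu/ml inoculum, 1% DMSO and two-fold compound dilutions from 64 to 0.0625 μg/ml. Plates were held 20 hours at 37° C in ambient air. S. pneumoniae colonies were grown beforehand on blood agar in 5% CO2.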

[2] = test system: Staphylococcus aureus ATCC 29213 (MSSA); experiment: Broth microdilution MIC, S. aureus ATCC 29213 (MSSA); details: broth microdilution, 37° C., 20 hours, read-out: MIC S. aureus ATCC 29213 (MSSA)
Method in brief: as §1

[3] = test system: Enterococcus faecalis ATCC 29212; experiment: Broth microdilution MIC, E. faecalis ATCC 29212; details: ATCC29212, broth microdilution, 37° C., 20 hours, read-out: MIC E. faecalis ATCC 29212
Method in brief: as §1

[4] = test system: Streptococcus pneumoniae ATCC 49619; experiment: Broth microdilution MIC, S. pneumoniae ATCC 49619; details: ATCC49619, broth microdilution, 37° C., 20 hours, read-out: MIC S. pneumoniae ATCC 49619
Method in brief: as §1

[5] = read-out: MIC E. faecium ATCC 700221 (VRE)
[6] = MHIIB, read-out: MIC against E. faecium ATCC 700221 (VRE)

Row | MIC [1, 5] [µg/mL] | MIC [1, 6] [µg/mL] | MIC [2] [µg/mL] | MIC [3] [µg/mL] | MIC [4] [µg/mL] | Structure (SMILES)
1 | 1 (≈ 3.08 µM) | ≤ 1 | 2 (≈ 6.17 µM) | 2 (≈ 6.17 µM) | 4 (≈ 12.3 µM) | Cn1ncc2nc(NCc3ccc(Cl)c(Cl)c3)[nH]c(=O)c21 [Compound 2, 5-((3,4-Dichlorobenzyl)amino)-1-methyl-1H-pyrazolo[4,3-d]pyrimidin-7(6H)-one]
2 | 4 (≈ 11.8 µM) | ≤ 1 | 2 (≈ 5.91 µM) | 4 (≈ 11.8 µM) | 4 (≈ 11.8 µM) | Cc1nn(C)c2c(=O)[nH]c(NCc3ccc(Cl)c(Cl)c3)nc12 [Compound 44, 5-((3,4-dichlorobenzyl)amino)-1,3-dimethyl-1H-pyrazolo[4,3-d]pyrimidin-7(6H)-one]
3 | 0.5 (≈ 1.43 µM) | ≤ 1 | 1 (≈ 2.86 µM) | 2 (≈ 5.71 µM) | 2 (≈ 5.71 µM) | C=CCn1ncc2nc(NCc3ccc(Cl)c(Cl)c3)[nH]c(=O)c21 [Compound 56, 1-allyl-5-((3,4-dichlorobenzyl)amino)-1H-pyrazolo[4,3-d]pyrimidin-7(6H)-one]
4 | 4 (≈ 12.9 µM) | – | 8 (≈ 25.8 µM) | 8 (≈ 25.8 µM) | 4 (≈ 12.9 µM) | O=c1[nH]c(NCc2ccc(Cl)c(Cl)c2)nc2cn[nH]c12 [Compound 77, 5-((3,4-dichlorobenzyl)amino)-1H-pyrazolo[4,3-d]pyrimidin-7(6H)-one]
5 | 2 (≈ 5.43 µM) | – | 2 (≈ 5.43 µM) | 4 (≈ 10.9 µM) | 2 (≈ 5.43 µM) | COCCn1ncc2nc(NCc3ccc(Cl)c(Cl)c3)[nH]c(=O)c21 [Compound 126, 5-((3,4-dichlorobenzyl)amino)-1-(2-methoxyethyl)-1H-pyrazolo[4,3-d]pyrimidin-7(6H)-one]
6 | 8 | – | 16 | 16 | 4 | Cl.O=c1[nH]c(NCc2ccc(Cl)c(Cl)c2)nc2cnn(CC3CNCCO3)c12 (stereo not drawn) [Compound 149, 5-((3,4-dichlorobenzyl)amino)-1-(morpholin-2-ylmethyl)-1H-pyrazolo[4,3-d]pyrimidin-7(6H)-one hydrochloride]
7 | 64 | – | – | 64 | 16 | Cl.Cl.O=c1[nH]c(NCc2ccc(Cl)c(Cl)c2)nc2cnn(CCOCCN3CCNCC3)c12 [Compound 167, 5-[(3,4-dichlorophenyl)methylamino]-1-[2-(2-piperazin-1-ylethoxy)ethyl]-6H-pyrazolo[4,3-d]pyrimidin-7-one]
8 | 8 | – | 32 | 16 | 4 | CN(C)CCOCCn1ncc2nc(NCc3ccc(Cl)c(Cl)c3)[nH]c(=O)c21.Cl [Compound 211, 5-((3,4-dichlorobenzyl)amino)-1-(2-(2-(dimethylamino)ethoxy)ethyl)-1H-pyrazolo[4,3-d]pyrimidin-7(6H)-one hydrochloride]
9 | 1 (≈ 2.59 µM) | ≤ 1 | 1 (≈ 2.59 µM) | > 64 | 8 (≈ 20.7 µM) | O=c1[nH]c(NCc2ccc(Cl)c(Cl)c2)nc2cnn(-c3ccccc3)c12 [Compound 212, 5-[(3,4-dichlorophenyl)methylamino]-1-phenyl-6H-pyrazolo[4,3-d]pyrimidin-7-one]
10 | 1 (≈ 2.86 µM) | ≤ 1 | 1 (≈ 2.86 µM) | 2 (≈ 5.71 µM) | 4 (≈ 11.4 µM) | O=c1[nH]c(NCc2ccc(Cl)c(Cl)c2)nc2cnn(C3CC3)c12 [Compound 213, 1-Cyclopropyl-5-((3,4-dichlorobenzyl)amino)-1H-pyrazolo[4,3-d]pyrimidin-7(6H)-one]
11 | 1 (≈ 2.64 µM) | ≤ 1 | 2 (≈ 5.29 µM) | 2 (≈ 5.29 µM) | 8 (≈ 21.1 µM) | O=c1[nH]c(NCc2ccc(Cl)c(Cl)c2)nc2cnn(C3CCCC3)c12 [Compound 214, 1-cyclopentyl-5-((3,4-dichlorobenzyl)amino)-1H-pyrazolo[4,3-d]pyrimidin-7(6H)-one]
12 | 1 (≈ 2.36 µM) | ≤ 1 | 1 (≈ 2.36 µM) | 2 (≈ 4.71 µM) | 2 (≈ 4.71 µM) | COC(=O)CCCCn1ncc2nc(NCc3ccc(Cl)c(Cl)c3)[nH]c(=O)c21 [Compound 218, methyl 5-[5-[(3,4-dichlorophenyl)methylamino]-7-oxo-6H-pyrazolo[4,3-d]pyrimidin-1-yl]pentanoate]
13 | 2 | – | 8 | 4 | 2 | Cl.O=c1[nH]c(NCc2ccc(Cl)c(Cl)c2)nc2cnn(C3CCN(C4CCOCC4)CC3)c12 [Compound 242, 5-((3,4-dichlorobenzyl)amino)-1-(1-(tetrahydro-2H-pyran-4-yl)piperidin-4-yl)-1H-pyrazolo[4,3-d]pyrimidin-7(6H)-one hydrochloride]
14 | 32 (≈ 64.9 µM) | – | > 64 | 64 (≈ 130 µM) | 32 (≈ 64.9 µM) | O=C(O)CCC(=O)N1CCC(n2ncc3nc(NCc4ccc(Cl)c(Cl)c4)[nH]c(=O)c32)CC1 [Compound 273, 4-(4-(5-((3,4-dichlorobenzyl)amino)-7-oxo-6,7-dihydro-1H-pyrazolo[4,3-d]pyrimidin-1-yl)piperidin-1-yl)-4-oxobutanoic Acid]
15 | 32 (≈ 62.6 µM) | – | > 64 | 64 (≈ 125 µM) | 8 (≈ 15.6 µM) | O=C([C@@H](O)[C@H](O)CO)N1CCC(n2ncc3nc(NCc4ccc(Cl)c(Cl)c4)[nH]c(=O)c32)CC1 [Compound 276, 5-((3,4-dichlorobenzyl)amino)-1-(1-((2S,3R)-2,3,4-trihydroxybutanoyl)piperidin-4-yl)-1H-pyrazolo[4,3-d]pyrimidin-7(6H)-one]
